Measured values: patent publication US7928103B2, “Compounds which modulate the CB2 receptor” (Boehringer Ingelheim International GmbH, priority 2006, dated 2011)

What was measured:
human CB2R [1] = molecular target: T1, human CB2R (Homo sapiens, UniProt P34972); test: CB2R mediated modulation of cAMP synthesis; assay type: cell-based; parameters: host or cells: CHO cells; details: agonists decrease forskolin induced production of cAMP; CHO cells expressing human CB2R
Procedure: B. CB2R Mediated Modulation of cAMP Synthesis:
Compounds of the invention were evaluated for their CB2 agonist or inverse agonistic activity in accordance with the following experimental method.
CHO cells expressing human CB2R (Euroscreen) were plated at a density of 5000 cells per well in 384 well plates and incubated overnight at 37° C. After removing the media, the cells were treated with test compounds diluted in stimulation buffer containing 1 mM IBMX, 0.25% BSA and 10 uM Forskolin. The assay was incubated for 30 minutes at 37° C. Cells were lysed and the cAMP concentration was measured using DiscoverX-XS cAMP kit, following the manufacturer's protocol. In this setting, agonists will decrease forskolin induced production of cAMP while inverse agonists will further increase forskolin induced production of cAMP. EC50 of agonists were calculated as follows. The maximal amount of cAMP produced by forskolin compared to the level of cAMP inhibited by 1 uM CP55940 is defined as 100%. The EC50 value of each test compound was determined as the concentration at which 50% of the forskolin-stimulated cAMP synthesis was inhibited. Data was analyzed using a four-parameter logistic model. (Model 205 of XLfit 4.0).

human CB2R [2] = molecular target: T1, human CB2R; test: Human CB2 receptor binding (3H-CP55940 competition, SPA); parameters: purchased Perkin Elmer Life and Analytical Sciences; host or cells: HEK293 EBNA cells, stably transfected; details: through the use of the above described assays (CB1/CB2 binding, CB2R and CB1R cAMP); assay not specified further
Procedure: A. Human CB1 and CB2 Receptor Binding:
CB2 membranes were purchased and made from HEK293 EBNA cells stably transfected with human CB2 receptor cDNA (Perkin Elmer Life and Analytical Sciences). CB1 membranes were isolated from HEK cells stably co-transfected with human CB1 receptor and Gα16 cDNA's. The membrane preparation was bound to scintillation beads (Ysi-Poly-L-lysine SPA beads, GE Healthcare) for 4 hours at room temperature in assay buffer containing 50 mM Tris, pH 7.5, 2.5 mM EDTA, 5 mM MgCl2, 0.8% fatty acid free Bovine Serum Albumin. Unbound membrane was removed by washing in assay buffer. Membrane-bead mixture was added to 96-well assay plates in the amounts of 15 ug membrane per well (CB2) or 2.5 ug per well (CB1) and 1 mg SPA bead per well. Compounds were added to the membrane-bead mixture in dose-response concentrations ranging from 1×10^−5 M to 1×10^−10 M with 0.25% DMSO, final. The competition reaction was initiated with the addition of ^3H-CP55940 (Perkin Elmer Life and Analytical Sciences) at a final concentration of 1.5 nM (CB2) or 2.5 nM (CB1). The reaction was incubated at room temperature for 18 hours and read on TopCount NXT plate reader. Total and non-specific binding was determined in the absence and presence of 1.25 uM Win 55212 (Sigma). IC50 values for each compound were calculated as the concentration of compound that inhibits the specific binding of the radioactively labeled ligand to the receptor by 50% using the XLFit 4.1 four parameter logistic model. IC50 values were converted to inhibition constant (Ki) values using Cheng-Prusoff equation.

T1 sequence (P34972 whole entry): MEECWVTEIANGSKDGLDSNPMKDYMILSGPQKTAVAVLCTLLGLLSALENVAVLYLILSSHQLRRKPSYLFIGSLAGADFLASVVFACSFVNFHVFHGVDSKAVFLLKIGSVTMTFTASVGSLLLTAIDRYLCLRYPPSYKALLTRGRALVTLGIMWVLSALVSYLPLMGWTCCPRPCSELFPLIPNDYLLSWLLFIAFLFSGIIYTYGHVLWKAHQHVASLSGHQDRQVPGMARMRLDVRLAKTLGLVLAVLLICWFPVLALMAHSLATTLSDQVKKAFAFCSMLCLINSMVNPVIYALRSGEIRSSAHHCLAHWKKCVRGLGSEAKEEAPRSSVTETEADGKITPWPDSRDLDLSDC

SMILES	found to exhibit agonistic activity (human CB2R [1])	found to exhibit activity (human CB2R [2])
c1ccc([C@H]2CN(Cc3ccc(Nc4ccc5ccccc5c4)nc3)CCO2)cc1 [Example 7, Naphthalen-2-yl-[5-((S)-2-phenyl-morpholin-4-ylmethyl)-pyridin-2-yl]-amine]	exhibit agonistic activity	exhibit activity
Cc1ccc(Nc2ccc(CN3CCO[C@@H](c4ccccc4)C3)cn2)cc1 [Example 31, [5-((S)-2-Phenyl-morpholin-4-ylmethyl)-pyridin-2-yl]-p-tolyl-amine]	exhibit agonistic activity	exhibit activity
CC(C)(C)c1cc(Nc2ccc(CN3CCO[C@@H](c4ccccc4)C3)cn2)no1 [Example 1, (5-tert-Butyl-isoxazol-3-yl)-[5-((S)-2-phenyl-morpholin-4-ylmethyl)-pyridin-2-yl]-amine]	exhibit agonistic activity	exhibit activity
c1ccc([C@H]2CN(Cc3ccc(Nc4cccc5ncccc45)nc3)CCO2)cc1 [Example 12, [5-((S)-2-Phenyl-morpholin-4-ylmethyl)-pyridin-2-yl]-quinolin-5-yl-amine]	exhibit agonistic activity	exhibit activity
Clc1ccc(Nc2ccc(CN3CCO[C@@H](c4ccccc4)C3)cn2)cc1 [Example 30, (4-Chloro-phenyl)-[5-((S)-2-phenyl-morpholin-4-ylmethyl)-pyridin-2-yl]-amine]	exhibit agonistic activity	exhibit activity
Clc1cccc(Nc2ccc(CN3CCO[C@@H](c4ccccc4)C3)cn2)c1 [Example 26, (3-Chloro-phenyl)-[5-((S)-2-phenyl-morpholin-4-ylmethyl)-pyridin-2-yl]-amine]	exhibit agonistic activity	exhibit activity
c1ccc([C@H]2CN(Cc3ccc(Nc4cccnc4)nc3)CCO2)cc1 [Example 9, [5-((S)-2-Phenyl-morpholin-4-ylmethyl)-pyridin-2-yl]-pyridin-3-yl-amine]	exhibit agonistic activity	exhibit activity
Clc1ccc(Cl)c(Nc2ccc(CN3CCO[C@@H](c4ccccc4)C3)cn2)c1 [Example 20, (2,5-Dichloro-phenyl)-[5-((S)-2-phenyl-morpholin-4-ylmethyl)-pyridin-2-yl]-amine]	exhibit agonistic activity	exhibit activity
Clc1ccccc1Nc1ccc(CN2CCO[C@@H](c3ccccc3)C2)cn1 [Example 17, (2-Chloro-phenyl)-[5-((S)-2-phenyl-morpholin-4-ylmethyl)-pyridin-2-yl]-amine]	exhibit agonistic activity	exhibit activity
